According to patent US4599352A, “Antineoplastic platinum (IV) complexes and compositions” (priority 1984, dated 1986):

What was measured:
[1] = system: IP-Implanted L1210/Cisplatin; assay: Comparison of isomers: long term survivors and weight differences in treating IP-implanted L1210/Cisplatin (Table 6); format: in vivo, mice
Excerpt: Comparative data for the others are as follows: 27 for trans d, 27 for trans d l and 13 for cis. […] The higher the ratio the more convenient it is to prepare a formulation for intravenous administration to patients which is shown in Table 7.

[2] = Comparative water solubilities of platinum complexes (Table 7)
[3] = Solubility of platinum complexes (Table I and preparation examples); format: physicochemical

Compound | Total Grams of Weight Difference [1] [Grams] | Total number of long-term survivors [1] | Water Solubility ([2]; Table 7) | Water Solubility mg/L / Mouse Optimal Dose (mg/kg) ([2]; ratio of water solubility to mouse optimal dose) | Ratio of 2/1 (weight difference / long-term survivors) [1] | Solubility in DMF ([3]; DMF) [mg/mL] | Solubility in methanol ([3]; methanol) [mg/mL] | Solubility in methanol-acetone ([3]; methanol-acetone (1:1)) [mg/mL] | Solubility in water ([3]; water) [mg/mL]
[Cl][Pt-2]1([Cl])([Cl])([Cl])[NH2+][C@H]2CCCC[C@@H]2[NH2+]1 [trans (d), (1S, 2S)-Tetrachloro-trans-1,2-cyclohexanediamine platinum (IV)] | -11.9 | 11 | – | – | – | – | – | – | –
Tetrachloro-cis-1,2-cyclohexanediamine platinum (IV) | -5.6 | 4 | 2,000 mg/L | 250 mg/L / (mg/kg) | 1.40 | 250 | 50 | 200 | < 10
[Cl][Pt]1([Cl])([Cl])([Cl])[NH]C2CCCCC2[NH]1 (stereo not drawn) [trans (d, l), (d,l)-Tetrachloro-trans-1,2-cyclohexanediamine platinum (IV)] | -10.0 | 12 | – | – | – | – | – | – | –
[Cl][Pt-2]1([Cl])([Cl])([Cl])[NH2+][C@@H]2CCCC[C@H]2[NH2+]1 [trans (l), (1R,2R)-Tetrachloro-trans-1,2-cyclohexanediammine platinum (IV)] | -6.0 | 17 | – | – | – | – | – | – | –
